This is an account of results in patent publication US20220033363A1, “HERBICIDALLY ACTIVE SUBSTITUTED PHENYLPYRIMIDINE HYDRAZIDES” (Bayer Aktiengesellschaft, priority 2018, published 2022).

Type in all cases: in vivo
Assay [1] relates to Stellaria media. Nature of the assay: Herbicidal pre-emergence action (Method B) against STEME. The following applies: 504 h; for pest or weed control at 320 g/ha: dosage 320 g/ha; for pest or weed control at 1280 g/ha: dosage 1280 g/ha. The text has this:
(§1) Method B: Herbicidal Pre-Emergence Action Seeds of mono- and dicotyledonous weed plants are placed in plastic pots in sandy loam soil (doubly sown with one species each of mono- or dicotyledonous weed plants per pot) and covered with soil. The compounds of the invention, formulated in the form of wettable powders (WP) or as emulsion concentrates (EC), are then applied onto the surface of the covering soil as aqueous suspension or emulsion with addition of 0.5% additive at a water application rate equivalent to 600 liters per hectare. After the treatment, the pots are placed in a greenhouse and kept under good growth conditions for the trial plants. After about 3 weeks, the effect of the preparations is scored visually in comparison with untreated controls as percentages. For example, 100% action=the plants have died, 0% action=like control plants.

The subject of assay [2] is Lolium rigidum. Kind of assay: Herbicidal post-emergence action (Method A) against LOLRI. The conditions noted are these: rated visually after about 3 weeks vs untreated controls; for pest or weed control at 1280 g/ha: Lolium rigidum, post-emergence, 504 h. How it is done:
(§2) Method A: Herbicidal Post-Emergence Action Seeds of mono- and dicotyledonous weed plants are placed in plastic pots in sandy loam soil (twin sowing with one species each of mono- or dicotyledonous weed plants per pot), covered with soil and cultivated in a greenhouse under controlled growth conditions. 2 to 3 weeks after sowing, the test plants are treated at the one-leaf stage. The compounds of the invention, formulated in the form of wettable powders (WP) or as emulsion concentrates (EC), are applied to the green parts of the plants as aqueous suspension or emulsion with addition of 0.5% additive at a water application rate equivalent to 600 liters per hectare. After the test plants have been kept in the greenhouse under optimum growth conditions for about 3 weeks, the activity of the preparations is rated visually in comparison to untreated controls. For example, 100% activity=the plants have died, 0% activity=like control plants.

For assay [3], the system named is Matricaria inodora. Nature of the assay: Herbicidal pre-emergence action (Method B) against MATIN. The conditions noted are these: Tripleurospermum inodorum, 504 h, scored visually after about 3 weeks vs untreated controls.
Excerpt: as §1

The test system of assay [4] is Poa annua. Kind of assay: Herbicidal post-emergence action (Method A) against POAAN. The following applies: 504 h, rated visually after about 3 weeks vs untreated controls; for pest or weed control at 320 g/ha: read-out: Post-emergence action at 320 g/ha against POANN; for pest or weed control at 1280 g/ha: read-out: Post-emergence action at 1280 g/ha against POANN. As for the experimental part:
as §2

Assay [5] concerns Echinochloa crus-galli. Kind of assay: Herbicidal pre-emergence action (Method B) against ECHCG. The following applies: 504 h, scored visually after about 3 weeks vs untreated controls.
Excerpt: as §1

For assay [6], the system named is Matricaria inodora. Kind of assay: Herbicidal post-emergence action (Method A) against MATIN. The following applies: rated visually after about 3 weeks vs untreated controls. As for the experimental part:
as §2

In assay [7] the test system is Stellaria media. Kind of assay: Herbicidal post-emergence action (Method A) against STEME. The conditions noted are these: 504 h, rated visually after about 3 weeks vs untreated controls. As for the experimental part: as §2
In assay [8] the test system is Lolium rigidum. Kind of assay: Herbicidal pre-emergence action (Method B) against LOLRI. The conditions noted are these: 504 h, scored visually after about 3 weeks vs untreated controls.
Excerpt: as §1

The test system of assay [9] is Poa annua. Kind of assay: Herbicidal pre-emergence action (Method B) against POAAN. The conditions noted are these: 504 h, scored visually after about 3 weeks vs untreated controls.
Excerpt: as §1

Assay [10] concerns harmful plants. Nature of the assay: Herbicidal post-emergence action (Method A), summary statement. The conditions noted are these: summary of tables A1-A11. How it is done:
as §2

Assay [11] relates to Amaranthus retroflexus. Kind of assay: Herbicidal post-emergence action (Method A) against AMARE. The conditions noted are these: rated visually after about 3 weeks vs untreated controls. How it is done:
as §2

In assay [12] the test system is Echinochloa crus-galli. Kind of assay: Herbicidal post-emergence action (Method A) against ECHCG. The following applies: rated visually after about 3 weeks vs untreated controls; for pest or weed control at 1280 g/ha: Echinochloa crus-galli, post-emergence, 504 h. How it is done:
as §2

For `CN(N)C(=O)c1nc(C2CC2)ncc1-c1ccccc1Cl` [Example I-500, 5-(2-chlorophenyl)-2-cyclopropyl-N-methylpyrimidine-4-carbohydrazide], the pest or weed control at 320 g/ha in assay [1] was determined as 100%; in assay [4] it was 100%; in assay [5], 90%; in assay [7], 100%; in assay [8] it was 90%; in assay [9], 100%. Moreover, the pest or weed control at 1280 g/ha came out at 100% in [1]; 90% in assay [2]; 100% in [3]; 100% in [4]; 100% in assay [5]; 100% in assay [7]. Further, the pest or weed control at 1280 g/ha in [8] and in assay [9] was 100% in each case. In [6] (320 g/ha), the “Post-emergence action at 320 g/ha against MATIN” value is 90%. For the same compound, in assay [6], the “Post-emergence action at 1280 g/ha against MATIN” value was 90%. Further, the “herbicidal efficacy against harmful plants in the case of post-emergence treatment” value in assay [10] is “good herbicidal efficacy”. The “Post-emergence action at 1280 g/ha against AMARE” value in [11] is on record as 100%.
As for `CN(C)NC(=O)c1nc(C2CC2)ncc1-c1ccccc1Cl` [Example I-501, 5-(2-chlorophenyl)-2-cyclopropyl-N′,N′-dimethylpyrimidine-4-carbohydrazide], the pest or weed control at 320 g/ha in assay [1], in assay [3], in assay [4], in assay [5], in [7] and in assay [8] was 100% each time. In addition, the pest or weed control at 320 g/ha in [9] was 100%. The pest or weed control at 1280 g/ha in [1], in assay [2], in assay [3], in assay [4], in assay [5] and in [7] was 100% in each case. Besides, the pest or weed control at 1280 g/ha in assay [8], in [12] and in assay [9] was 100% throughout. Moreover, the “Post-emergence action at 320 g/ha against LOLRI” value in assay [2] amounted to 100%. Also, in [6], the “Post-emergence action at 1280 g/ha against MATIN” value stood at 90%. Besides, in [12], the “Post-emergence action at 320 g/ha against ECHCG” value stood at 100%. In assay [11], the “Post-emergence action at 1280 g/ha against AMARE” value was 100%.
Consider `CC(=O)N(NC(=O)c1nc(C2CC2)ncc1-c1ccccc1Cl)c1ccccn1` [Example I-513, N′-acetyl-5-(2-chlorophenyl)-2-cyclopropyl-N′-(pyridin-2-yl)pyrimidine-4-carbohydrazide], for which the pest or weed control at 320 g/ha in [1], in assay [4], in assay [7] and in assay [9] was 100% throughout. Further, the pest or weed control at 1280 g/ha in [1], in assay [2], in assay [3], in assay [4], in assay [5] and in assay [7] was 100% each time. Moreover, the pest or weed control at 1280 g/ha in assay [8] worked out at 90%; in assay [12] it was 100%; in assay [9], 100%. Moreover, the “Post-emergence action at 1280 g/ha against MATIN” value in assay [6] is 90%. The “Post-emergence action at 320 g/ha against ECHCG” value in [12] came to 100%.
On to `CN(NC(=O)c1nc(C2CC2)ncc1-c1ccccc1Cl)C(=O)OC(C)(C)C` [Example I-548, tert-butyl 2-{[5-(2-chlorophenyl)-2-cyclopropylpyrimidin-4-yl]carbonyl}-1-methylhydrazinecarboxylate], for which the pest or weed control at 320 g/ha in assay [1] turned out to be 100%; in [5] it was 90%; in assay [9], 100%. In addition, the pest or weed control at 1280 g/ha in assay [1] stood at 100%; in assay [4], 90%; in assay [5], 100%; in [8], 90%; in [12], 90%; in assay [9], 100%.
Turning to `O=C(NN=C1CCOCC1)c1nc(C2CC2)ncc1-c1ccccc1Cl` [Example I-559, 5-(2-chlorophenyl)-2-cyclopropyl-N′-(tetrahydro-4H-pyran-4-ylidene)pyrimidine-4-carbohydrazide], the pest or weed control at 320 g/ha in assay [1] came to 100%; in assay [3], 100%; in assay [4], 100%; in assay [5], 90%; in assay [7] it was 90%; in [8], 100%. This compound displayed a pest or weed control at 320 g/ha in assay [9] of 100%. In addition, the pest or weed control at 1280 g/ha in assay [1], in assay [2], in assay [3], in assay [4], in assay [5] and in assay [7] was 100% throughout. Moreover, the pest or weed control at 1280 g/ha in assay [8] worked out at 100%; in assay [12] it was 90%; in [9], 100%. Also, the “Post-emergence action at 320 g/ha against LOLRI” value in [2] turned out to be 90%. Moreover, the “Post-emergence action at 320 g/ha against ECHCG” value in assay [12] is 90%. In addition, the “herbicidal efficacy against harmful plants in the case of post-emergence treatment” value in [10] was “good herbicidal efficacy”.
Regarding `CCOC(=O)NNC(=O)c1nc(C2CC2)ncc1-c1ccc(F)cc1Cl` [Example I-2591, ethyl 2-{[5-(2-chloro-4-fluorophenyl)-2-cyclopropylpyrimidin-4-yl]carbonyl}hydrazinecarboxylate], the pest or weed control at 320 g/ha in assay [1], in assay [4] and in assay [9] was 100% throughout. For the same compound, the pest or weed control at 1280 g/ha turned out to be 100% in [1]; 90% in assay [3]; 100% in assay [4]; 100% in assay [5]; 100% in assay [7]; 100% in [8]. Further, the pest or weed control at 1280 g/ha in [12] was 90%; in assay [9] it was 100%.
